Data set [1] relates to Musca domestica L. Briefly: Contact test on non-porous tile, Musca domestica. In kind it is in vivo. On the set-up: Mortality %: concentration or dose not given beside the values. As to conditions: for mortality at 680 µg/mL: 0.68 mg/ml; for Mortality %: insects on treated tile. As to the method:
1 ml of Composition 1 was applied to the tile. […] 1 ml of Composition 8a was distributed on the tile. […] 1 ml of Composition 8a was distributed on a tile. […] At the end of the 30 minutes, the flies were transferred to an untreated area.
1 ml of Composition 3 was applied to the tile. […] 1 ml of Composition 8c was distributed on the tile. […] 1 ml of Composition 8c was distributed on a tile. […] At the end of the 30 minutes, the flies were transferred to an untreated area.
1 ml of Composition 9a was distributed on the tile. […] 1 ml of Composition 9a was distributed on a tile. […] At the end of the 30 minutes, the flies were transferred to an untreated area. […] 1 ml of Composition 10a was distributed on the tile. […] 1 ml of Composition 10a was distributed on a tile. […] At the end of the 30 minutes, the flies were transferred to an untreated area. […] 1 ml of Composition 8c was distributed on the tile. […] 1 ml of Composition 8c was distributed on a tile. […] At the end of the 30 minutes, the flies were transferred to an untreated area.
1 ml of Composition 5a, was distributed on the tile. […] 1 ml of Composition 6a was distributed on the tile. […] 1 ml of Composition 7a was distributed on the tile.
1 ml of Composition 3 was distributed on the tile. […] 1 ml of Composition 9a was distributed on the tile. […] 1 ml of Composition 11a was distributed on a tile. […] 1 ml of Composition 12a was distributed on a tile.
1 ml of Composition 3 was distributed on the tile. […] 1 ml of Composition 17a was distributed on a tile. […] 1 ml of Composition 18a was distributed on a tile. […] Each experiment (A-C) was conducted in duplicate.
1 ml of Composition 23a was distributed on the tile. […] 1 ml of Composition 20a was distributed on a tile. […] Each experiment (A-B) was conducted in duplicate.
1 ml of Composition 3 was distributed on the tile. […] 1 ml of Composition 25a was distributed on a tile. […] Each experiment (A-B) was conducted in duplicate.
1 ml of Composition 23a was distributed on the tile. […] 1 ml of Composition 27a was distributed on a tile. […] Each experiment (A-B) was conducted in duplicate.
1 ml of Composition 26a was distributed on a tile. […] 1 ml of Composition 26b was distributed on a tile. […] 1 ml of Composition 26c was distributed on a tile.
1 ml of Composition 22a was distributed on a tile. […] 1 ml of Composition 22b was distributed on a tile. […] 1 ml of Composition 22c was distributed on a tile.
1 ml of Composition 23a was distributed on the tile. […] 1 ml of Composition 44a was distributed on a tile.
1 ml of Composition 33 was distributed on a tile. […] 1 ml of Composition 33 was distributed on a tile. […] At the end of the 30 minutes, the flies were transferred to an untreated area.
1 ml of Composition 1 was distributed on the tile. […] 1 ml of Composition 34 was distributed on a tile. […] 1 ml of Composition 34 was distributed on a tile. […] At the end of the 30 minutes, the flies were transferred to an untreated area.
1 ml of Composition 3 was distributed on the tile. […] 1 ml of Composition 31a was distributed on a tile. […] 1 ml of Composition 31b was distributed on a tile. […] 1 ml of Composition 31b was distributed on a tile. […] At the end of the 30 minutes, the flies were transferred to an untreated area. […] 1 ml of Composition 38a was distributed on a tile. […] 1 ml of Composition 38a was distributed on a tile. […] At the end of the 30 minutes, the flies were transferred to an untreated area.
G) According to the invention. 1 ml of Composition 40a was distributed on a tile. […] Subsequently, after waiting for the solvent to evaporate, 10 flies were placed on top of the treated til

The subject of data set [2] is Blatta orientalis. The note with it: for Mortality %/time (h) (application): Table 37, Blatta orientalis, concentrations in mg/ml in label; for Mortality %: insects on treated tile. As to the method: Method: Contact test on non-porous tile measuring 400 cm^2 at a temperature of 28° C. Test duration: up to 72 hours after exposure of the insect to the insecticidal active substance.
(§1) Three tests were performed in parallel, A, B, and C, as follows: • A) Comparative. 1 ml of Composition 2 was applied to the tile. After waiting for the complete evaporation of the solvent, 10 cockroaches were placed on top of the treated tile, starting the test. • B) According to the invention. 1 ml of Composition 8b was distributed on the tile. After waiting for the complete evaporation of the solvent, 1 ml of Composition 2 was added to the same tile. Subsequently, after waiting for the solvent to evaporate, 10 cockroaches were placed on top of the treated tile, starting the test. • C) According to the invention. 1 ml of Composition 8b was distributed on a tile. After waiting for the complete evaporation of the solvent, 10 cockroaches were placed for 30 minutes on top of the treated tile. At the end of the 30 minutes, the cockroaches were transferred to an untreated area.
Method: Contact test on non-porous tile measuring 400 cm^2 at a temperature of 28° C. Test duration: up to 120 hours after exposure of the insect to the insecticidal active substance.
as §1, with “4a” for “2”, “8d” for “8b”, “After” for “Subsequently, after”
Six tests were performed in parallel, A, B, C, D, E and F, as follows: • A) Comparative. 1 ml of Composition 9b was distributed on the tile. After waiting for the complete evaporation of the solvent, 1 ml of Composition 4a was added to the same tile. Subsequently, after waiting for the solvent to evaporate, 10 cockroaches were placed on top of the treated tile, starting the test. • B) Comparative. 1 ml of Composition 9b was distributed on a tile. After waiting for the complete evaporation of the solvent, 10 cockroaches were placed for 30 minutes on top of the treated tile. At the end of the 30 minutes, the cockroaches were transferred to an untreated area. […] 1 ml of Composition 10b was distributed on the tile. After waiting for the complete evaporation of the solvent, 1 ml of Composition 4a was added to the same tile. Subsequently, after waiting for the solvent to evaporate, 10 cockroaches were placed on top of the treated tile, starting the test. • D) Comparative. 1 ml of Composition 10b was distributed on a tile. After waiting for the complete evaporation of the solvent, 10 cockroaches were placed for 30 minutes on top of the treated tile. At the end of the 30 minutes, the cockroaches were transferred to an untreated area. […] 1 ml of Composition 8d was distributed on the tile. After waiting for the complete evaporation of the solvent, 1 ml of Composition 4a was added to the same tile. Subsequently, after waiting for the solvent to evaporate, 10 cockroaches were placed on top of the treated tile, starting the test. • F) According to the invention. 1 ml of Composition 8d was distributed on a tile. After waiting for the complete evaporation of the solvent, 10 cockroaches were placed for 30 minutes on top of the treated tile. At the end of the 30 minutes, the cockroaches were transferred to an untreated area.

The mark [3] stands for this setting: Musca domestica, single substance alone, 48 h, read-out: Mortality %/time (h).

“And” between values parts separate entries of the source, which are not always exact repeats. Equal entries are not always repeated. Where two headings read alike, the source gives them in different places.

Take `CCCCCCCCCCC(O)CO` (centres unmarked) [1,2-dodecandiol]: in data set [1] (setting [3]), the mortality at 680 µg/mL was 0%.

With `CCCCC(O)CO` (centres unmarked) [1,2-hexandiol (0.84), 1,2-hexandiol], the “Mortality %/time (h) (application)” value in data set [2] (48 h) was 0/48 ^ %.

Regarding `CCCCCCC(O)CO` (centres unmarked) [1,2-octandiol], the mortality at 680 µg/mL in data set [1] (setting [3]) was 0%.

As for `OCCCCCCCCO` [1,8-octandiol], the mortality at 680 µg/mL in data set [1] (setting [3]) was 0%.

As for `COP(=O)(OC)SCn1c(=O)oc2cc(Cl)cnc21` [Azamethiphos], in data set [1] (Musca domestica, 48 h, read-out: Mortality %/time (h)), the mortality at 6900 µg/mL was determined as 23%.

As for `CC1(C)C(C=C(Cl)Cl)C1C(=O)OC(C#N)c1cccc(Oc2ccccc2)c1` (centres unmarked) [Composition 3, Cypermethrin, reference compound], the Mortality % is on record as 10% in data set [1] (Example 3, 26° C, 24 h); 20% in data set [1] (Example 3, 26° C, 48 h); 5% in data set [1] (Example 9, 21° C, 24 h); 16% in data set [1] (Example 9, 21° C, 48 h); 5% in data set [1] (Example 12, 21° C, 24 h); 16% in data set [1] (Example 12, 21° C, 48 h). The Mortality % was found to be 16% in data set [1] (Example 17, 21° C, 48 h); 10% in data set [1] (Example 29, 25° C, 24 h); 16% in data set [1] (Example 29, 25° C, 48 h).

Turning to `CC1(C)C(C=C(Cl)Cl)C1C(=O)OC(C#N)c1cccc(Oc2ccccc2)c1` (centres unmarked) [Composition 4a, Cypermethrin], the Mortality % was 30% in data set [2] (Example 4, 28° C, 24 h); 35% in data set [2] (Example 4, 28° C, 48 h); 35% in data set [2] (Example 4, 28° C, 120 h); 20% in data set [2] (Example 10, 21° C, 24 h); 35% in data set [2] (Example 10, 21° C, 48 h); 20% in data set [2] (Example 11, 21° C, 48 h). Also, the Mortality % in data set [2] (Example 11, 21° C, 72 h) stood at 25%; in data set [2] (Example 11, 21° C, 96 h), 33%; in data set [2] (Example 13, 21° C, 48 h) it was 60%; in data set [2] (Example 13, 21° C, 72 h) it was 62%; in data set [2] (Example 20, 21° C, 24 h) it was 5%; in data set [2] (Example 20, 21° C, 72 h), 25%. The Mortality % in data set [2] (Example 32, 25° C, 24 h) stood at 10%; in data set [2] (Example 32, 25° C, 48 h) it was 35%; in data set [2] (Example 32, 25° C, 72 h) it was 45%. The “Mortality %/time (h) (application)” value in data set [2] (48 h, listed as Cypermethrin (0.20)) is 35/48 ^ % and 20/48 ^ %.

On to `CCCCC(CC)COC(=O)OCC(CC)CCCC` (centres unmarked) [Composition 17b, Bis(2-ethyl-hexyl)-carbonate], for which the “Mortality %/time (h) (application)” value in data set [2] (48 h) is on record as 0/48 ^ %.

Take `COP(=O)(OC)SCn1c(=O)oc2cc(Cl)cnc21` [Composition 23a, Azamethiphos, reference compound]: the Mortality % in data set [1] (Example 14, 21° C, 48 h) is recorded as 23%; in data set [1] (Example 18, 21° C, 24 h) it was 23%; in data set [1] (Example 24, 25° C, 24 h), 10%; in data set [1] (Example 30, 25° C, 24 h), 10%; in data set [1] (Example 30, 25° C, 48 h), 23%.

For the compound `CC1(C)C(C=C(Cl)Cl)C1C(=O)OC(C#N)c1cccc(Oc2ccccc2)c1` (centres unmarked) [Composition 46a, Cypermethrin, reference compound], the Mortality % in data set [1] (Example 35, 25° C, 24 h) turned out to be 5%; in data set [1] (Example 35, 25° C, 48 h), 10%.

`CC1(C)C(C=C(Cl)Cl)C1C(=O)OC(C#N)c1cccc(Oc2ccccc2)c1` (centres unmarked) [Cypermethrin]: the mortality at 230 µg/mL in data set [1] (Musca domestica, single substance alone, 0.23 mg/ml, 48 h, read-out: Mortality %/time (h)) is 10%. For the same compound, the mortality at 450 µg/mL in data set [1] (Musca domestica, single substance alone, 0.45 mg/ml, 48 h, read-out: Mortality %/time (h)) was 16%.

Take `CCCCCCCCCCCCO` [Dodecanol]: in data set [1] (setting [3]), the mortality at 680 µg/mL worked out at 4%.

Regarding “Spinosad [Composition 43, reference compound]”, the Mortality % in data set [1] (Example 19, 25° C, 24 h) is 27%; in data set [1] (Example 23, 25° C, 24 h), 27%; in data set [1] (Example 27, 25° C, 24 h), 27%.

The values above are taken from patent US20260215418A1, “HYDROCARBON ALCOHOLS AND THEIR DERIVATIVES AS SYNERGISTS IN PESTICIDE ACTIVITY” (priority 2022, published 2026).
